Test [1] has as its system Escherichia coli. Put plainly: Antimicrobial activity against Escherichia coli BW25113 incubated for 16 to 18 hrs by macrodilution method. Format: functional.
Test [2] has as its system Escherichia coli. Put plainly: Antimicrobial activity against Escherichia coli BW25113 expressing delta-tolC gene incubated for 16 to 18 hrs by macrodilution method. Format: functional.
Test [3] relates to Yersinia pestis. Put plainly: Antimicrobial activity against Yersinia pestis incubated for 16 to 18 hrs by macrodilution method. Format: functional.
Test [4] deals with Burkholderia pseudomallei. Put plainly: Antimicrobial activity against Burkholderia pseudomallei incubated for 16 to 18 hrs by macrodilution method. Format: functional.
Test [5] relates to Francisella tularensis. Put plainly: Antimicrobial activity against Francisella tularensis incubated for 16 to 18 hrs by macrodilution method. It is filed as functional.
Test [6] deals with Bacillus anthracis. Put plainly: Antimicrobial activity against Bacillus anthracis incubated for 16 to 18 hrs by macrodilution method. It is filed as functional.
In test [7] the test system is Burkholderia mallei. The test can be described thus: Antimicrobial activity against Burkholderia mallei incubated for 16 to 18 hrs by macrodilution method. It is filed as functional.
Test [8] relates to Escherichia coli. The test can be described thus: Antimicrobial activity against Escherichia coli MG1655 incubated at 37 degC overnight for 18 hrs. It is filed as functional. The conditions noted are these: MG1655, 18 h.
In test [9] the test system is Staphylococcus aureus. The test can be described thus: Antimicrobial activity against Staphylococcus aureus incubated at 37 degC overnight for 18 hrs. Format: functional.
The subject of test [10] is Salmonella typhimurium. The test can be described thus: Antimicrobial activity against Salmonella typhimurium incubated for 16 to 18 hrs by macrodilution method. Format: functional, Salmonella enterica subsp. enterica serovar Typhimurium. The conditions noted are these: Salmonella enterica.
The subject of test [11] is Klebsiella aerogenes. Put plainly: Antimicrobial activity against Enterobacter aerogenes incubated for 16 to 18 hrs by macrodilution method. It is filed as functional.
Test [12] has as its system Edwardsiella tarda. Put plainly: Antimicrobial activity against Edwardsiella tarda incubated for 16 to 18 hrs by macrodilution method. It is filed as functional.
Test [13] concerns Klebsiella pneumoniae. The test can be described thus: Antimicrobial activity against Klebsiella pneumoniae incubated for 16 to 18 hrs by macrodilution method. It is filed as functional.
Test [14] has as its system Acinetobacter baumannii. Put plainly: Antimicrobial activity against Acinetobacter baumannii incubated for 16 to 18 hrs by macrodilution method. It is filed as functional.
The subject of test [15] is Vibrio cholerae. The test can be described thus: Antimicrobial activity against Vibrio cholerae incubated for 16 to 18 hrs by macrodilution method. It is filed as functional.
Test [16] relates to Morganella morganii. Put plainly: Antimicrobial activity against Morganella morganii incubated for 16 to 18 hrs by macrodilution method. It is filed as functional.
For test [17], the system named is Staphylococcus aureus. Put plainly: Antimicrobial activity against Staphylococcus aureus Newman incubated for 16 to 18 hrs by macrodilution method. It is filed as functional.
Test [18] deals with Shigella boydii. Put plainly: Antimicrobial activity against Shigella boydii incubated for 16 to 18 hrs by macrodilution method. It is filed as functional.
The subject of test [19] is Escherichia coli. Put plainly: Potentiation of novobiocin-induced antimicrobial effect against Escherichia coli MG1655 at 2.5 to 80 uM incubated at 37 degC overnight for 18 hrs in presence of novobiocin by checkerboard assay. It is filed as functional, organism-based.
The subject of test [20] is Staphylococcus aureus. The test can be described thus: Synergistic potentiation of ampicillin-induced antimicrobial effect against Staphylococcus aureus at 2.5 to 80 uM incubated at 37 degC overnight for 18 hrs in presence of >4 uM ampicillin by checkerboard assay. It is filed as functional, organism-based.
In test [21] the test system is Escherichia coli. The test can be described thus: Antimicrobial activity against Escherichia coli MG1655 at 2.5 to 80 uM incubated at 37 degC overnight for 18 hrs in presence of ampicillin by checkerboard assay. Format: functional, organism-based.
In test [22] the test system is Escherichia coli. Put plainly: Synergistic potentiation of kanamycin-induced antimicrobial effect against Escherichia coli MG1655 at 2.5 to 80 uM incubated at 37 degC overnight for 18 hrs in presence of >4 uM kanamycin by checkerboard assay. Format: functional, organism-based.
In test [23] the test system is Staphylococcus aureus. Put plainly: Potentiation of kanamycin-induced antimicrobial effect against Staphylococcus aureus at 2.5 to 80 uM incubated at 37 degC overnight for 18 hrs in presence of kanamycin by checkerboard assay. It is filed as functional, organism-based.
In test [24] the test system is Escherichia coli. The test can be described thus: Synergistic potentiation of ampicillin-induced antimicrobial effect against Escherichia coli MG1655 at 2.5 to 80 uM incubated at 37 degC overnight for 18 hrs in presence of >4 uM ampicillin by checkerboard assay. It is filed as functional, organism-based.

Values after ≈ are worked out from the molar mass of the structure shown. Active and inactive are the calls of the source. The rule behind the calls is not given here.

With `OCC(CO)(CO)NC[C@@H](O)Cn1c2ccc(Cl)cc2c2cc(Cl)ccc21`, the minimum inhibitory concentration (MIC) came to 80 µM (≈ 33.1 µg/mL) in test [1] and 20 µM (≈ 8.27 µg/mL) in test [2].

For the compound `OCC(CO)(CO)NC[C@H](O)Cn1c2ccc(Cl)cc2c2cc(Cl)ccc21`, the MIC in [1] was 80 µM (≈ 33.1 µg/mL); in test [2], 20 µM (≈ 8.27 µg/mL). For the same compound, the MIC50 in test [3] is ≥ 170 µM; in [4], ≥ 170 µM; in test [5] it was 85 µM (≈ 35.1 µg/mL); in test [6], 42 µM (≈ 17.4 µg/mL); in [7], ≥ 170 µM. For the same compound, the MIC90 was ≥ 170 µM in test [3]; ≥ 170 µM in test [4]; 170 µM (≈ 70.3 µg/mL) in test [5]; 42 µM (≈ 17.4 µg/mL) in test [6]; ≥ 170 µM in test [7].

Take `CCC(CC)NCC(O)Cn1c2ccc(Cl)cc2c2cc(Cl)ccc21` (stereo not drawn): the values for the minimal inhibitory concentration (MIC) in [1] and in [2] were 80 µM (≈ 30.3 µg/mL) and 5 µM (≈ 1.9 µg/mL), respectively.

With `OCC(CO)(CO)NCC(O)Cn1c2ccccc2c2ccccc21` (stereo not drawn), the minimum inhibitory concentration (MIC) is > 320 µM in test [1] and > 80 µM in [2].

For `CO[C@@H]1[C@@H](OC(N)=O)[C@@H](O)[C@H](Oc2ccc3c(O)c(NC(=O)c4ccc(O)c(CC=C(C)C)c4)c(=O)oc3c2C)OC1(C)C` [NOVOBIOCIN], the MIC is 320 µM (≈ 196 µg/mL) in test [8] and 1.2 µM (≈ 0.735 µg/mL) in test [2].

For the compound `NC[C@H]1O[C@H](O[C@H]2[C@H](O)[C@@H](O[C@H]3O[C@H](CO)[C@@H](O)[C@H](N)[C@H]3O)[C@H](N)C[C@@H]2N)[C@H](O)[C@@H](O)[C@@H]1O` [KANAMYCIN], the figures for the MIC in test [8] and in [9] were 10 µM (≈ 4.85 µg/mL) and 2.5 µM (≈ 1.21 µg/mL), respectively.

As for `OCC(CO)(CO)NCC(O)Cn1c2ccc(Cl)cc2c2cc(Cl)ccc21` (racemic), the MIC in [10] is 100 µM (≈ 41.3 µg/mL); in [11] it was 200 µM (≈ 82.7 µg/mL); in test [1], 80 µM (≈ 33.1 µg/mL); in [12], 100 µM (≈ 41.3 µg/mL); in test [13], 200 µM (≈ 82.7 µg/mL); in test [14], 200 µM (≈ 82.7 µg/mL). Also, the minimum inhibitory concentration (MIC) in test [15] is 50 µM (≈ 20.7 µg/mL); in test [16] it was 200 µM (≈ 82.7 µg/mL); in [17], 40 µM (≈ 16.5 µg/mL); in [18], 100 µM (≈ 41.3 µg/mL); in [2], 20 µM (≈ 8.27 µg/mL).

With `OC(CNC1CCCCC1)Cn1c2ccc(Cl)cc2c2cc(Cl)ccc21` (stereo not drawn), the MIC in test [10] was 100 µM (≈ 39.1 µg/mL); in test [11], > 200 µM; in test [1], 40 µM (≈ 15.7 µg/mL); in [12] it was 50 µM (≈ 19.6 µg/mL); in test [13], > 200 µM; in test [14], 25 µM (≈ 9.78 µg/mL). The minimal inhibitory concentration (MIC) is 6.25 µM (≈ 2.45 µg/mL) in test [15]; > 200 µM in [16]; 5 µM (≈ 1.96 µg/mL) in test [17]; 50 µM (≈ 19.6 µg/mL) in test [18]; 2.5 µM (≈ 0.978 µg/mL) in test [2]. For the same compound, the MIC50 stood at 41 µM (≈ 16 µg/mL) in [3]; 164 µM (≈ 64.2 µg/mL) in test [4]; 2.5 µM (≈ 0.978 µg/mL) in [5]; 5 µM (≈ 1.96 µg/mL) in [6]; 21 µM (≈ 8.22 µg/mL) in test [7]. Further, the MIC90 in test [3] was 82 µM (≈ 32.1 µg/mL); in test [4], ≥ 164 µM; in test [5], 10 µM (≈ 3.91 µg/mL); in [6] it was 10 µM (≈ 3.91 µg/mL); in [7], 82 µM (≈ 32.1 µg/mL).

As for `CCC(CO)(CO)NCC(O)Cn1c2ccc(Cl)cc2c2cc(Cl)ccc21` (stereo not drawn), the MIC worked out at 160 µM (≈ 65.8 µg/mL) in [1] and 20 µM (≈ 8.23 µg/mL) in test [2].

On to `CC(C)(C)NCC(O)Cn1c2ccc(Cl)cc2c2cc(Cl)ccc21` (stereo not drawn), for which the results for the minimum inhibitory concentration (MIC) in [1] and in test [2] were 160 µM (≈ 58.4 µg/mL) and 40 µM (≈ 14.6 µg/mL), respectively.

On to `CC(CO)(CO)NCC(O)Cn1c2ccc(Cl)cc2c2cc(Cl)ccc21` (stereo not drawn), for which the MIC in test [1] turned out to be 80 µM (≈ 31.8 µg/mL); in [2] it was 40 µM (≈ 15.9 µg/mL).

On to `CC(C)CCNCCCn1c2ccc(Cl)cc2c2cc(Cl)ccc21`, for which the figures for the minimum inhibitory concentration (MIC) in test [1] and in test [2] were 80 µM (≈ 29.1 µg/mL) and 5 µM (≈ 1.82 µg/mL), respectively.

On to `CC(C)CCNCC(O)Cn1c2ccc(Cl)cc2c2cc(Cl)ccc21` (stereo not drawn), for which the minimal inhibitory concentration (MIC) worked out at 50 µM (≈ 19 µg/mL) in [10]; 50 µM (≈ 19 µg/mL) in test [11]; 40 µM (≈ 15.2 µg/mL) in [1]; 25 µM (≈ 9.48 µg/mL) in [12]; 50 µM (≈ 19 µg/mL) in test [13]; 12.5 µM (≈ 4.74 µg/mL) in test [14]. Also, the MIC in [15] is 6.25 µM (≈ 2.37 µg/mL); in test [16], 50 µM (≈ 19 µg/mL); in test [17], 5 µM (≈ 1.9 µg/mL); in test [18], 25 µM (≈ 9.48 µg/mL); in [2] it was 2.5 µM (≈ 0.948 µg/mL). Besides, the outcome in [19] and in test [23] was inactive. For the same compound, the outcome in test [20], in test [21], in test [22] and in [24] was Active. For the same compound, the MIC50 in [3] amounted to 21 µM (≈ 7.97 µg/mL); in test [4], 170 µM (≈ 64.5 µg/mL); in test [5], 5 µM (≈ 1.9 µg/mL); in test [6] it was 5 µM (≈ 1.9 µg/mL); in test [7], 21 µM (≈ 7.97 µg/mL). Besides, the MIC90 in test [3] is 42 µM (≈ 15.9 µg/mL); in test [4] it was ≥ 170 µM; in test [5], 10 µM (≈ 3.79 µg/mL); in test [6], 5 µM (≈ 1.9 µg/mL); in [7], 42 µM (≈ 15.9 µg/mL).

`OCC(CO)(CO)NCC(O)Cn1ccc2cc(Cl)ccc21` (stereo not drawn): the MIC was > 320 µM in [1] and 320 µM (≈ 105 µg/mL) in test [2].

`CCC(CC)CNCC(O)Cn1c2ccc(Cl)cc2c2cc(Cl)ccc21` (stereo not drawn): the MIC in test [10] was 200 µM (≈ 78.7 µg/mL); in test [11] it was > 200 µM; in [1], 80 µM (≈ 31.5 µg/mL); in test [12], 12.5 µM (≈ 4.92 µg/mL); in test [13], > 200 µM; in [14] it was 25 µM (≈ 9.83 µg/mL). Further, the MIC in [15] is 6.25 µM (≈ 2.46 µg/mL); in [16] it was > 200 µM; in test [17] it was 5 µM (≈ 1.97 µg/mL); in [18], 25 µM (≈ 9.83 µg/mL); in [2], 2.5 µM (≈ 0.983 µg/mL).

With `OCC(CO)NCC(O)Cn1c2ccc(Cl)cc2c2cc(Cl)ccc21` (stereo not drawn), the MIC in [1] came to 40 µM (≈ 15.3 µg/mL); in [2], 20 µM (≈ 7.67 µg/mL).

For `CC1(C)S[C@@H]2[C@H](NC(=O)[C@H](N)c3ccccc3)C(=O)N2[C@H]1C(=O)O` [AMPICILLIN], the minimum inhibitory concentration (MIC) in test [8] is 10 µM (≈ 3.49 µg/mL); in [9], 1 µM (≈ 0.349 µg/mL).

As to `CCCCCNCC(O)Cn1c2ccc(Cl)cc2c2cc(Cl)ccc21` (stereo not drawn), the MIC is 80 µM (≈ 30.3 µg/mL) in test [1] and 5 µM (≈ 1.9 µg/mL) in test [2].

The values are drawn from ChEMBL document CHEMBL3576856, “Membrane-Targeting DCAP Analogues with Broad-Spectrum Antibiotic Activity against Pathogenic Bacteria” (2015).
